Test results from publication PMC6072501, “N-tert-Prenylation of the indole ring improves the cytotoxicity of a short antagonist G analogue against small cell lung cancer” (MedChemComm, 2017).
Entries after “also recorded” stand apart in the source; their conditions may differ. Values belong to the molecule of their own block, whether it stands above or below them. *1 amine or outer side, *2 acyl side, *3 side chain or, on linkers, in order; H or OH if unused. Where a SMILES comes first, the peptide text is derived from it. Where no end group is shown, it is not given here. [ ]: non-standard residue; d: D form. X1 = C=CC(C)(C)n1cc(C[C@@H](N[*:1])C(=O)[*:2])c2ccccc21; NMeF = CN[C@@H](Cc1ccccc1)C(=O)O; dNMeF = CN[C@H](Cc1ccccc1)C(=O)O

How the values were obtained:
[1] = phase I clinical trial, cited from earlier work
Text: Recognising the anti-proliferative action together with other preclinical evidence supporting broad-spectrum neuropeptide antagonism prompted a phase I clinical trial with SPG,[11] the results of which were encouraging. […] This, combined with low potency of the peptide, necessitated prolonged dosing by infusion to maintain therapeutic concentrati ...

[2] = test system: DMS79 small cell lung cancer cell line; assay: Cell viability assay (resazurin) on DMS79 cells; type: cell-based, human; settings: 48 h
Text: (§1) Swiss Albino cell line 3T3 and two SCLC cell lines, DMS79 and H69, were selected for screening. 3T3 cells are fibroblast non-cancerous cells and were used to show the selectivity of the peptides for cancer treatment. The DMS79 cell line is a variant cell line model which is more resistant to chemotherapy as it originates from a patient with SCLC who had undergone treatment with cytoxan, vincristine, methotrexate and radiation therapy. On the other hand, H69 represents a chemo-naive SCLC cell line model. Cell viability was assessed by quantifying the reduction of resazurin dye to fluorescent resorufin.[28]–[31] H69 and DMS79 cells were seeded in 96-well plates at a density of 10 000 cells per well and maintained in 10% FBS/RPMI-1640 for 48 hours at 37 °C in a humidified air atmosphere of 5% CO2 in the presence of various peptide concentrations. […] The dye was then applied for 5 hours before measuring fluorescence. […]
(§2) Complete medium containing resazurin was used as background. […] Then resazurin (20 µl) was added to each well and kept at 37 °C in a humidified air atmosphere of 5% CO2 for 5 hours before fluorescence readings were recorded. […]
(§3) Assessment of apoptosis was carried out through a fluorescent technique by using Acridine Orange (AO) and Ethidium Bromide (EB) double staining. […] AO emits green fluorescence while EB emits red/orange fluorescence when […]

[3] = test system: 3T3 Swiss Albino fibroblasts; type: cell-based, mouse; settings: 48 h
Text: as §1, §2, §3

[4] = test system: H69 small cell lung cancer cell line; assay: Cell viability assay (resazurin) on H69 cells; type: cell-based, human; settings: 48 h
Text: Swiss Albino cell line 3T3 and two SCLC cell lines, DMS79 and H69, were selected for screening. 3T3 cells are fibroblast non-cancerous cells and were used to show the selectivity of the peptides for cancer treatment. The DMS79 cell line is a variant cell line model which is more resistant to chemotherapy as it originates from a patient with SCLC who had undergone treatment with cytoxan, vincristine, methotrexate and radiation therapy. On the other hand, H69 represents a chemo-naive SCLC cell line model. Cell viability was assessed by quantifying the reduction of resazurin dye to fluorescent resorufin.[28]–[31] H69 and DMS79 cells were seeded in 96-well plates at a density of 10 000 cells per well and maintained in 10% FBS/RPMI-1640 for 48 hours at 37 °C in a humidified air atmosphere of 5% CO2 in the presence of various peptide concentrations. 3T3 cells were maintained under the same conditions but using 10% FBS/DMEM and a seeding density of 2500 cells per well. The dye was then applied for 5 hours before measuring fluorescence. […] The peptide thus had the potential to be tested in vivo subject to its biocompatibility with plasma.
Growth media, RPMI-1640 (with L-glutamine and NaHCO3) and DMEM, Dulbecco’s PBS (without calcium chloride and magnesium chloride), and Resazurin sodium salt were obtained from Sigma-Aldrich®. Human lung small cell carcinoma (H69 (ECACC 91091802)) and Mouse Swiss Albino embryo fibroblast (3T3 Swiss Albino (ECACC 85022108)) were from European Collection of Authenticated Cell Cultures (ECACC, Public Health England). […]
as §2, §3

[5] = Peptide stability in mouse plasma (HPLC); type: in vitro ADME; settings: neat mouse plasma, 37 °C; for stability in mouse plasma over 3 hour incubation: 400 µg/ml, 0 and 3 h, RP-HPLC C8, 220 nm, triplicate
Experimental: (§4) Plasma drug interaction affects the ability of the drug to distribute into tissues. To determine the extent of plasma binding to peptide 2, equilibrium dialysis (Cyprotex Ltd) was carried out. A 5 μM solution of peptide in PBS at pH 7.5 in 0.5% DMSO was mixed with neat human plasma in a total volume of 0.15 ml. After equilibrium at 37 °C, aliquots were taken from both sides of the membrane to determine the fraction of bound peptide. […] While in circulation, the peptide needs to be stable for a few hours to accumulate in tumours. It is commonly accepted that unmodified peptides are highly prone to protease digestion in plasma, leading to rapid degradation within a few minutes. Peptides 1 and 2 were subjected to stability testing in mouse plasma. The peptides dissolved in neat plasma (0.2 ml) were incubated at 37 °C. Aliquots (20 μl) were taken at 0 and 3 hour intervals in triplicate for analysis by HPLC. […] A plasma stability of 3 hours is considered as a sufficient time window to accumulate in tumour for efficacy studies.
4. Peptides stability in mouse plasma
Eppendorf® tubes were used for sample preparations. HPLC microvials were bought from Sigma-Aldrich®. HPLC analysis was performed using a C8 column (ACE 5 C8 – 250 X 4.6mm id) on a PerkinElmer Series 200 machine.
4.2. Peptides plasma stability
Peptides were added to neat mouse plasma at a concentration of 400 µg/ml and placed inside an incubator at 37 °C for 3 hours. Aliquots (20 µl) were taken at 0 and 3 hour periods. […] Then 80 µl of the supernatant was added to 0.1% TFA/H2O (120 µl) and transferred into a HPLC microvial to be analysed using the C8 column. […]
DMS79 cells were injected subcutaneously into ten CBA nude female mice (bred in house) at 5x10^6 cells/mouse in 0.1 ml of serum free RPMI-1640 medium containing 50% matrigel (Scientific Laboratory Supplies, Surrey, UK) as described in our recent publication (Reference 38). Tumours were measured and mice weighed 3 times a week throughout the study. Tumour volumes were calculated by multiplying the length, width and depth of tumors. […]

[6] = Aqueous solubility (observation on dosing solutions); type: physicochemical; settings: observation while preparing dosing solutions; higher concentration gave significant precipitation
[7] = Plasma binding by equilibrium dialysis (Cyprotex Ltd); type: in vitro ADME; settings: neat human plasma
Experimental: as §4

NCI-H69 cells = settings: at 50 μM, serum-free media; cited from earlier work
Text: (§5) Several other related short chain SP antagonists have been investigated in the literature. […] Recently, Sarvi et al.[19] designed and synthesised a panel of eight substance P-peptide analogues ranging from a pentamer to 11-mer sequences. They compared their IC50 values, relative to SPG, using H345 and H69 cell lines. All an ...

H69 = settings: treatment for 72 hours; cited from earlier work
Text: Swiss Albino cell line 3T3 and two SCLC cell lines, DMS79 and H69, were selected for screening. 3T3 cells are fibroblast non-cancerous cells and were used to show the selectivity of the peptides for cancer treatment. The DMS79 cell line is a variant cell line model which is more resistant to chemotherapy as it originates from a patient with SCLC who had undergone treatment with cytoxan, vincristine, methotrexate and radiation therapy. On the other hand, H69 represents a chemo-naive SCLC cell line model. Cell viability was assessed by quantifying the reduction of resazurin dye to fluorescent re ...

H345 and H69 cell lines = settings: cited from earlier work
Text: as §5

H345 xenografts = settings: subcutaneous injections, 25 mg kg^–1; cited from earlier work
Experimental: The relative tumour volume (RTV) as a percentage was calculated by dividing the tumour volumes on measured days by the tumour volume on day 0, before treatment. […] Excluding this single animal from the treated group, the tumour growth inhibition (TGI, Fig. 5) was calculated at day 7 as TGI (%) = (1 – T/C) × 100, where T indicates the mean tumour volume (mm^3) of the test group and C indicates the mean tumour volume of the vehicle-treated group. At day 7, the tumour volumes of pre ...

[8] = up to the concentration of 30 μM, resazurin

IC50 [2]: > 30 µM
IC50 [4]: > 30 µM
Molecule: CSCC[C@H](NC(=O)[C@H](CC(C)C)NC(=O)[C@@H](Cc1c[nH]c2ccccc12)NC(=O)[C@H](Cc1ccccc1)N(C)C(=O)[C@@H](Cc1c[nH]c2ccccc12)NC(=O)[C@@H](N)CCCNC(=N)N)C(N)=O [SPG, Arg–D-Trp–NMePhe–D-Trp–Leu–Met-NH2] (H-R[dW][NMeF][dW]LM-NH2)
elimination from plasma ([1]; resulting in poor systemic bioavailability): quickly eliminated from plasma
toxicity [1]: minimal toxicity
inhibitory effect (cytotoxicity profile), DMS79 [2, 8]: no inhibitory effect
IC50 [3]: > 30 µM
inhibitory effect (cytotoxicity profile), H69 [4, 8]: no inhibitory effect

stability in mouse plasma over 3 hour incubation [5]: remained largely intact
Molecule: CN[C@H](Cc1ccccc1)C(=O)N[C@H](Cc1c[nH]c2ccccc12)C(=O)N[C@@H](Cc1ccccc1)C(=O)N[C@H](Cc1c[nH]c2ccccc12)C(=O)N[C@@H](CC(C)C)C(N)=O [peptide 1] (H-[dNMeF][dW]F[dW]L-NH2)

time of resisting degradation by plasma ([5]; HPLC): at least 3 hours
fraction unbound at 5 µM ([7]; 5 μM peptide in PBS pH 7.5 with 0.5% DMSO, total volume 0.15 ml, 37 °C, mean): 0.728 ± 0.124
peptide unbound ([7]; 5 μM, PBS pH 7.5, 37 °C): 73%
Molecule: C=CC(C)(C)n1cc(C[C@@H](NC(=O)[C@H](Cc2ccccc2)NC(=O)[C@@H](Cc2c[nH]c3ccccc23)NC(=O)[C@@H](Cc2ccccc2)NC)C(=O)N[C@@H](CC(C)C)C(N)=O)c2ccccc21 [peptide 2, NMeDPhe-DTrp-Phe-DTrp(N-tert-prenyl)-Leu-NH2] (H-[dNMeF][dW]F[X1]L-NH2)
aqueous solubility [6]: limited aqueous solubility; also recorded: lower aqueous solubility than SPG
stability in mouse plasma over 3 hour incubation [5]: remained largely intact; also recorded: a small percentage of degradation was noted
cytotoxicity enhancement of 2 over pentamer 1 (comparison of IC50 values) ([4]; depending on the cell line (DMS79 and H69)): 5 to 10 fold

Molecule: D-MePhe–D-Trp–Phe–D-Trp–Leu-MPA [NY3521]
inhibition of growth of NCI-H69 cells (NCI-H69 cells): completely inhibited

Molecule: D-MePhe–D-Trp–Phe–D-Trp–LeuΨ(CH2NH)Leu-NH2 [NY3460]
inhibition of growth of NCI-H69 cells (NCI-H69 cells): completely inhibited

Molecule: [dR]PKP[dW]Q[dW]F[dW][dL]L [11-mer]
IC50 (H69): 4.96 ± 0.64 µM
potency relative to SPG (IC50 values) (H345 and H69 cell lines): 3 to 4 fold
tumour growth (H345 xenografts): significant reduction in tumour growth
